Columns and labels:
Assay type in all cases: in vivo
[1] = system: adult engorged female ticks (Rhipicephalus microplus); experiment: Rhipicephalus (Boophilus) microplus injection test; conditions: 168 h, egg deposition after 7 days, read-out: activity (efficacy: infertile eggs); for pest or weed control at 4 pg: application rate 4 pg/animal; for pest or weed control at 0.02 mg: application rate 20 μg/animal
Summary of the method: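 Five adult engorged female ticks injected into the abdomen with 1 μL compound solution in DMSO, then held in a climate chamber. Fertile egg deposition assessed after 7 days, unclear eggs kept until hatching (about 42 days); efficacy 100% = all eggs infertile, 0% = all fertile.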

[2] = system: Rhipicephalus microplus larvae (strain Parkhurst, resistant against synthetic pyrethroids); experiment: Rhipicephalus (Boophilus) microplus in-vitro contact test, larval cattle tick; conditions: after 48 hours, read-out: activity (efficacy: larvae dead or moribund); for pest or weed control at 100 g/ha: application rate 1 pg/cm^2 (=100 g/ha); for pest or weed control at 500 g/ha: application rate 5 pg/cm^2 (=500 g/ha)
Summary of the method: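 Acetone solutions coated onto inner walls of glass tubes by rotation (900 ppm giving 5 μg/cm^2); after evaporation, 20-50 larvae added per tube and held at 27° C., 85% relative humidity. Efficacy read after 48 h from negative geotactic behaviour; 100% = all larvae dead or moribund.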

[3] = system: fall armyworm larvae (Spodoptera frugiperda); experiment: Spodoptera frugiperda spray test; conditions: 168 h, read-out: activity (mortality)
Summary of the method: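 Compound in acetone/DMF, diluted in water with 1000 ppm alkylarylpolyglycol ether emulsifier, sprayed on maize leaf sections. Dried leaves infested with fall armyworm larvae; % mortality after 7 days (100% = all killed, 0% = none).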

[4] = system: adult cat fleas (Ctenocephalides felis); experiment: Ctenocephalides felis in-vitro contact test, adult cat flea; conditions: application rate 5 μg/cm^2 (=500 g/ha), after 48 hours, read-out: activity (efficacy: fleas dead or moribund)
Summary of the method: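 Acetone solutions of compound coated onto inner walls of glass tubes (900 ppm giving […]); after drying, 5-10 adult Ctenocephalides felis added and held at room temperature. At 48 h, fleas placed on a 45-50° C heating plate; those unable to climb away scored dead or moribund, expressed as % efficacy.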

[5] = system: larvae of the southern green stink bug (Nezara viridula); experiment: Nezara viridula spray test; conditions: 96 h, after 4 days; for mortality at 100 g/ha: application rate 100 g/ha; for mortality at 500 g/ha: application rate 500 g/ha
Summary of the method: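 Compound in acetone/dimethylformamide, diluted in water with 1000 ppm alkylarylpolyglycol ether emulsifier, sprayed onto barley plants carrying stink bug larvae. Mortality (%) scored after 4 days, 100% meaning all insects killed.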

[6] = system: adult unfed cat fleas (Ctenocephalides felis); experiment: Ctenocephalides felis oral test; conditions: 48 h, read-out: activity (mortality)
Summary of the method: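 About 20 adult unfed fleas fed through parafilm on cattle blood containing compound (DMSO stock diluted in blood), blood held at 37 °C and fleas at room temperature. Mortality (%) scored after 2 days.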

[7] = system: green peach aphid (Myzus persicae); experiment: Myzus persicae oral test; conditions: 120 h, application rate 4 ppm, after 5 days
Summary of the method: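 Compound was dissolved at 1 part by weight in 100 parts acetone, then diluted with water to test concentration and combined with IPL41 insect medium (33%+15% sugar). A mixed aphid population fed on this through a parafilm seal, and mortality (%) was scored after 5 days.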

[8] = system: green peach aphid (Myzus persicae); experiment: Myzus persicae spray test; conditions: 120 h, after 5 days; for mortality at 100 g/ha: application rate 100 g/ha; for mortality at 500 g/ha: application rate 500 g/ha
Summary of the method: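 Chinese cabbage leaf disks carrying all instars of M. persicae sprayed with compound in acetone/DMF, diluted in water with 1000 ppm alkylarylpolyglycol ether emulsifier. Percent mortality scored after 5 days (100% = all aphids killed).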

Row | Structure (SMILES) | pest or weed control at 4 pg [1] | pest or weed control at 0.02 mg [1] | pest or weed control at 100 g/ha [2] | mortality at 100 g/ha [3] | mortality at 500 g/ha [3] | pest or weed control at 5 µg/cm2 [4] | mortality at 100 g/ha [5] | mortality at 500 g/ha [5] | mortality at 100 ppm [6] | mortality at 4 ppm [7] | pest or weed control at 500 g/ha [2] | mortality at 100 g/ha [8] | mortality at 500 g/ha [8]
1 | C[C@H](NC(=O)c1cc(Cl)cc(S(C)(=O)=O)c1)c1nc(C2CC2)nn1-c1ccc(C#N)cn1 [I-4] | 100% | 100% | 90% | 100% | 100% | 90% | 100% | 100% | 100% | 100% | – | – | –
2 | Cc1nc([C@H](C)NC(=O)c2cc(C(F)(F)F)n(C)n2)n(-c2ccc(C#N)cn2)n1 [II-7] | 100% | 100% | – | 100% | 100% | 100% | – | 90% | 100% | – | 100% | – | –
3 | Cc1nc([C@H](C)NC(=O)c2cc(Cl)nn2C)n(-c2ccc(C#N)cn2)n1 [II-11] | 100% | 100% | 100% | – | 100% | 100% | – | – | 100% | – | 100% | – | –
4 | C[C@H](NC(=O)c1cc(C#N)cc([S+](C)[O-])c1)c1ncnn1-c1ccc(C#N)cn1 (some centres unmarked) [II-12] | 100% | 100% | 80% | – | 100% | 100% | 100% | 100% | – | 100% | 100% | 90% | 90%
5 | C[C@H](NC(=O)c1cc(C(F)(F)F)cc(S(C)(=O)=O)c1)c1ncnn1-c1ccc(Cl)cn1 [II-16] | 100% | 100% | 100% | 100% | 100% | 100% | 100% | 100% | 100% | 100% | 100% | – | –
6 | C[C@H](NC(=O)c1cc(Cl)cc(S(=O)(=O)C(F)F)c1)c1ncnn1-c1ccc(C#N)cn1 [II-17] | 100% | 100% | 100% | 83% | 100% | 100% | – | 100% | 100% | 100% | 100% | – | –
7 | C[C@H](NC(=O)c1cc(Cl)cc([S+]([O-])C(F)F)c1)c1ncnn1-c1ccc(C#N)cn1 (stereo partly drawn) [II-18, 3-chloro-N-{(1S)-1-[1-(5-cyanopyridin-2-yl)-1H-1,2,4-triazol-5-yl]ethyl}-5-[(difluoro-methyl)sulfinyl]benzamide] | 100% | 100% | 100% | 100% | 100% | 100% | 100% | 100% | 100% | 100% | 100% | – | –
8 | C[C@H](NC(=O)c1cc(OC(F)(F)F)cc(C2CC2)c1)c1ncnn1-c1ccc(Cl)cn1 [II-23] | 100% | 100% | 100% | 100% | 100% | 100% | 100% | 100% | – | – | 100% | 100% | 100%
9 | Cc1nc([C@H](C)NC(=O)c2cc(C(F)(F)F)n(C)n2)n(-c2ncccn2)n1 [II-25] | 100% | 100% | 100% | – | – | 100% | 100% | 100% | – | – | 100% | – | 90%
10 | C[C@H](NC(=O)c1cc(C2CC2)cc(C(F)(F)F)c1)c1ncnn1-c1ccc(Cl)cn1 [II-27] | 100% | 100% | 100% | 100% | 100% | 100% | 100% | 100% | 100% | – | 100% | – | –
11 | C[C@H](NC(=O)c1cc(C(F)(F)F)cc(S(=O)(=O)C2CC2)c1)c1ncnn1-c1ccc(C#N)cn1 [II-32] | 100% | 100% | 100% | 100% | 100% | – | 100% | 100% | 100% | 100% | 100% | – | 90%
12 | Cc1nc([C@H](C)NC(=O)c2cc(OC(F)(F)F)cc(C3CC3)c2)n(-c2ccc(C#N)cn2)n1 [II-39] | 100% | 100% | 100% | 100% | – | 100% | – | – | 100% | 100% | 100% | – | –
13 | C[C@H](NC(=O)c1cc(Cl)cc(S(=O)(=O)C(F)(F)F)c1)c1ncnn1-c1ncc(OC(F)F)cn1 [II-43] | 100% | 100% | 100% | 100% | – | 100% | 100% | – | 100% | 100% | 100% | – | –
